According to article PMC5025651, “Reprofiled anthelmintics abate hypervirulent stationary-phase Clostridium difficile” (Scientific Reports, 2016):
≈ marks a conversion by molar mass, not a printed value.

Assays:
[1] = test system: C. difficile strain 630 (CD630, ATCC BAA-1382-FZ, ribotype 012); assay: MIC by broth microdilution; format: cell-based, Clostridium difficile; conditions: for MIC: Clostridioides difficile, ATCCBAA1382, BHIS broth, anaerobic, 20–24 h, n = 2; for in vitro activity against CD630 (in words): growth inhibition, MIC assay
[2] = test system: C. difficile strain 4118 (CD4118, ATCC BAA-1870, ribotype 027); assay: MIC by broth microdilution; format: cell-based, Clostridium difficile; conditions: for MIC: Clostridioides difficile, ATCCBAA1870, BHIS broth, anaerobic, 20–24 h, n = 2, read-out: MIC C. difficile 4118; for in vitro activity against CD4118 (in words): growth inhibition, MIC assay
[3] = test system: B. breve Strain EX336960VC19; assay: MIC by broth microdilution; format: cell-based; conditions: Bifidobacterium breve; B. breve EX336960VC19; LSM broth, anaerobic; duplicate; read-out: MIC
[4] = test system: B. longum subsp. longum Strain 44B; assay: MIC by broth microdilution; format: cell-based; conditions: Bifidobacterium longum; B. longum subsp. longum 44B; LSM broth, anaerobic; duplicate; read-out: MIC
[5] = test system: C. clostridioforme ATCC 25537; assay: MIC by broth microdilution; format: cell-based, Clostridium clostridioforme; conditions: Clostridium, ATCC25537; C. clostridioforme ATCC 25537; BHIS, anaerobic; duplicate; read-out: MIC
[6] = test system: C. sporogenes ATCC 15579; assay: MIC by broth microdilution; format: cell-based; conditions: Clostridium sporogenes, ATCC15579, BHIS, anaerobic, duplicate
[7] = test system: L. johnsonii Strain 135-1-CHN; assay: MIC by broth microdilution; format: cell-based; conditions: Lactobacillus johnsonii, STRAIN1351CHN; L. johnsonii 135-1-CHN; CAMHB with 5% laked horse blood, ~48 h; duplicate; read-out: MIC
[8] = test system: L. plantarum ATCC 8014; assay: MIC by broth microdilution; format: cell-based; conditions: Lactiplantibacillus plantarum, ATCC8014; L. plantarum ATCC 8014; CAMHB with 5% laked horse blood, ~48 h; duplicate; read-out: MIC
[9] = test system: L. reuteri Strain CF48-3A; assay: MIC by broth microdilution; format: cell-based, Lactobacillus reuteri; conditions: Limosilactobacillus reuteri; L. reuteri CF48-3A; CAMHB with 5% laked horse blood, ~48 h; duplicate; read-out: MIC
[10] = test system: B. fragilis Strain CL05T00C42; assay: MIC by broth microdilution; format: cell-based; conditions: Bacteroides fragilis; B. fragilis CL05T00C42; supplemented Brucella broth, anaerobic; duplicate; read-out: MIC
[11] = test system: B. thetaiotaomicron ATCC 29148; assay: microbe, parasite or virus in culture; format: cell-based; conditions: Bacteroides thetaiotaomicron, ATCC29148; B. thetaiotaomicron ATCC 29148; supplemented Brucella broth, anaerobic; duplicate; read-out: MIC
[12] = test system: P. distasonis ATCC 8503; assay: MIC by broth microdilution; format: cell-based; conditions: Parabacteroides distasonis, ATCC8503; P. distasonis ATCC 8503; supplemented Brucella broth, anaerobic; duplicate; read-out: MIC
[13] = test system: P. nigrescens ATCC 33563; assay: MIC by broth microdilution; format: cell-based; conditions: Prevotella nigrescens, ATCC33563; P. nigrescens ATCC 33563; supplemented Brucella broth, anaerobic; duplicate; read-out: MIC
[14] = test system: B. subtilis ATCC 6051; assay: MIC by broth microdilution; format: cell-based; conditions: Bacillus subtilis, ATCC6051; B. subtilis ATCC 6051; CAMHB, aerobic; duplicate; read-out: MIC
[15] = test system: S. aureus RN4220; assay: MIC by broth microdilution; format: cell-based; conditions: Staphylococcus aureus, CAMHB, aerobic, duplicate
[16] = test system: S. epidermidis 1457; assay: MIC by broth microdilution; format: cell-based; conditions: Staphylococcus epidermidis; S. epidermidis 1457; CAMHB, aerobic; duplicate; read-out: MIC
[17] = test system: A. baumannii M2; assay: MIC by broth microdilution; format: cell-based; conditions: Acinetobacter baumannii; A. baumannii M2; CAMHB, aerobic; duplicate; read-out: MIC
[18] = test system: P. aeruginosa PAO1; assay: MIC by broth microdilution; format: cell-based; conditions: Pseudomonas aeruginosa; P. aeruginosa PAO1; CAMHB, aerobic; duplicate; read-out: MIC

MIC [1] [µg/mL] | MIC [2] [µg/mL] | Structure (SMILES) | in vitro activity against CD630 (in words) [1] | in vitro activity against CD4118 (in words) [2] | also measured
0.5 (≈ 0.897 µM) | 1 (≈ 1.79 µM) | O=C(Nc1ccc(Oc2ccccc2)cc1)c1cc(I)cc(I)c1O [Compound 5a] | exhibited in vitro activity | exhibited in vitro activity | 
> 32 | > 32 | COc1c(I)cc(I)cc1C(=O)Nc1ccc(Oc2ccccc2)cc1 [Compound 5b] | inactive | inactive | 
> 32 | > 32 | O=C(Nc1ccc(Oc2ccccc2)cc1)c1cc(I)cc(I)c1 [Compound 5c] | inactive | inactive | 
> 32 | > 32 | CN(C(=O)c1cc(I)cc(I)c1O)c1ccc(Oc2ccccc2)cc1 [Compound 5d] | inactive | inactive | 
0.13 (≈ 0.226 µM) | 0.13 (≈ 0.226 µM) | O=C(Nc1ccc(Oc2ccc(F)cc2)cc1)c1cc(I)cc(I)c1O [Compound 5e] | exhibited in vitro activity | exhibited in vitro activity | 
0.13 (≈ 0.228 µM) | 0.25 (≈ 0.438 µM) | Cc1ccc(Oc2ccc(NC(=O)c3cc(I)cc(I)c3O)cc2)cc1 [Compound 5f] | exhibited in vitro activity | exhibited in vitro activity | 
0.13 (≈ 0.22 µM) | 0.25 (≈ 0.423 µM) | O=C(Nc1ccc(Oc2ccc(Cl)cc2)cc1)c1cc(I)cc(I)c1O [Compound 5g] | exhibited in vitro activity | exhibited in vitro activity | 
> 32 | > 32 | COc1c(I)cc(I)cc1C(=O)Nc1ccc(Oc2ccc(Cl)cc2)cc1 [Compound 5h] | inactive | inactive | 
> 32 | > 32 | COc1c(I)cc(I)cc1C(=O)Nc1ccc2ccccc2c1 [Compound 6b] | inactive | inactive | 
> 32 | > 32 | O=C(Nc1ccc2ccccc2c1)c1cc(I)cc(I)c1 [Compound 6c] | inactive | inactive | 
0.5 (≈ 0.924 µM) | 1 (≈ 1.85 µM) | O=C(Nc1ccc(-c2ccccc2)cc1)c1cc(I)cc(I)c1O [Compound 7a] |  |  | 
8 (≈ 16 µM) | 8 (≈ 16 µM) | O=C(Nc1ccccc1Cl)c1cc(I)cc(I)c1O [Compound 7c] |  |  | 
0.13 (≈ 0.22 µM) | 0.25 (≈ 0.423 µM) | O=C(Nc1ccc(I)cc1)c1cc(I)cc(I)c1O [Compound 7d] |  |  | 
0.25 (≈ 0.452 µM) | 0.5 (≈ 0.904 µM) | O=C(Nc1ccc2c(c1)Cc1ccccc1-2)c1cc(I)cc(I)c1O [Compound 7e, N-(9H-Fluoren-2-yl)-2-hydroxy-3,5-diiodobenzamide] |  |  | 
2 (≈ 3.79 µM) | 2 (≈ 3.79 µM) | O=C(NCCc1ccccc1Cl)c1cc(I)cc(I)c1O [Compound 7f] |  |  | 
1 (≈ 1.9 µM) | 1 (≈ 1.9 µM) | O=C(NCCc1cccc(Cl)c1)c1cc(I)cc(I)c1O [Compound 7g] |  |  | 
0.25 (≈ 0.474 µM) | 0.5 (≈ 0.948 µM) | O=C(NCCc1ccc(Cl)cc1)c1cc(I)cc(I)c1O [Compound 7h] |  |  | 
0.25 (≈ 0.445 µM) | 0.5 (≈ 0.89 µM) | O=C(NCCc1ccc(Cl)cc1Cl)c1cc(I)cc(I)c1O [Compound 7i] |  |  | 

Structure (SMILES) | MIC [1] [µg/mL] | MIC [2] [µg/mL] | in vitro activity against CD630 (in words) [1] | in vitro activity against CD4118 (in words) [2] | also measured
O=C(Nc1ccc2ccccc2c1)c1cc(I)cc(I)c1O [Compound 6a] | 0.5 (≈ 0.971 µM) | 0.5 (≈ 0.971 µM) | exhibited in vitro activity | exhibited in vitro activity | MIC [3]: 32 µg/mL (≈ 62.1 µM); MIC [4]: 32 µg/mL (≈ 62.1 µM); MIC [5]: 4 µg/mL (≈ 7.77 µM); MIC [6]: 8 µg/mL (≈ 15.5 µM); MIC [7]: 32 µg/mL (≈ 62.1 µM); MIC [8]: > 32 µg/mL; MIC [9]: 32 µg/mL (≈ 62.1 µM); MIC [10]: 32 µg/mL (≈ 62.1 µM); MIC [11]: > 32 µg/mL; MIC [12]: 16 µg/mL (≈ 31.1 µM); MIC [13]: 8 µg/mL (≈ 15.5 µM); MIC [14]: 0.06 µg/mL (≈ 0.116 µM); MIC [15]: 0.25 µg/mL (≈ 0.485 µM); MIC [16]: 0.06 µg/mL (≈ 0.116 µM); MIC [17]: > 32 µg/mL; MIC [18]: > 32 µg/mL
O=C(Nc1ccc(Cl)cc1)c1cc(I)cc(I)c1O [Compound 7b] | 0.25 (≈ 0.501 µM) | 0.5 (≈ 1 µM) |  |  | MIC [3]: 8 µg/mL (≈ 16 µM); MIC [4]: 8 µg/mL (≈ 16 µM); MIC [5]: 16 µg/mL (≈ 32 µM); MIC [6]: 16 µg/mL (≈ 32 µM); MIC [7]: 32 µg/mL (≈ 64.1 µM); MIC [8]: 32 µg/mL (≈ 64.1 µM); MIC [9]: 32 µg/mL (≈ 64.1 µM); MIC [10]: 32 µg/mL (≈ 64.1 µM); MIC [11]: > 32 µg/mL; MIC [12]: 8 µg/mL (≈ 16 µM); MIC [13]: 4 µg/mL (≈ 8.01 µM); MIC [14]: 0.06 µg/mL (≈ 0.12 µM); MIC [15]: 0.06 µg/mL (≈ 0.12 µM); MIC [16]: ≤ 0.03 µg/mL; MIC [17]: 32 µg/mL (≈ 64.1 µM); MIC [18]: > 32 µg/mL
